According to patent publication US9795585B2, “Methods of using L-butylphthalide for the prevention and treatment of cerebral ischemia disease” (priority 2004, dated 2017):

Experiments:
[1] = tested on: cerebral injury-induced cerebral ischemia in rats; experiment: Neural symptoms induced by cerebral injury in rats; format: in vivo, male Wistar rats; conditions: 50 mg/kg oral 5 minutes after cerebral injury; scored after 24 hours; vs vehicle control
Method: Experimental Animals: male Wistar rats
Experimental Methods: Cerebral injury in rats was caused by allowing a cone-shaped metal object weighing 220 g to freely fall from a position of 30 cm height and to strike the skull cap behind the left coronal suture. dl-, d-, and l-NBP (50 mg/kg) and the vehicle (control group) were orally administered after 5 minutes, and the behavioral changes were scored after 24 hours.

[2] = tested on: focal cerebral ischemia in rats; experiment: Memory disorder induced by focal cerebral ischemia (shuttle box, artery ligation by method of Tamura); format: in vivo, male Wistar rats; conditions: 15 and 30 mg/kg oral 15 min after operation; observed after 24 hours; vs vehicle control
Method: Experimental Animal: The same as Example 1. Experimental Equipment: Shuttle box. Experimental Methods: • 1. Rats were trained to acquire learning and memory; • 2. Artery ligation: Artery ligation was conducted on rats according to the method of Tamura. After 24 hours, the experiment of learning as in step (1) was repeatedly conducted on rats. • 3. Grouping and administration: the rats were divided into 9 groups, which were normal group, pseudo-operation group, ischemia control group, and groups of dl-, d-, and l-NBP (15 and 30 mg/kg). The rats were orally administered at 15 min after the operation, and the changes of latency of active and passive avoidance response were observed after 24 hours.

[3] = tested on: cerebral edema induced by cerebral artery ligation in rats; experiment: Cerebral edema induced by ligation of right middle cerebral artery; format: in vivo, male Wistar rats; conditions: 40 and 80 mg/kg oral 15 minutes after ligation; sacrificed after 24 hours
Method: Experimental Animals: the same as Example 1. Experimental Equipments: Oxygen analyzer. Experimental Methods: Cerebral edema was induced by the ligation of right middle cerebral artery of rats. After 15 minutes, dl-, d-, and l-NBP (40 and 80 mg/kg) were orally administered. The rats were sacrificed after 24 hours. The forebrain was removed, and the cerebral hemispheres on the left and right side were weighed. Dry weight was obtained by baking for 24 hours under 100° C. The weight of water in the brain tissue was thus calculated by subtracting of dry weight from wet weight. Then, the tissues was nitrified for 4 hours, and pH was adjusted by using HCl. Next, the ion selective electrode was connected onto the oxygen analyzer, and the concentrations of Na^+ and K^+ in the brain tissue were measured.

[4] = tested on: cerebral apoplexy in spontaneous hypertension rats; experiment: Cerebral apoplexy in salt-loaded spontaneous hypertensive rats; format: in vivo; conditions: 25 and 50 mg/kg/d oral
Method: Experimental Animals: spontaneous hypertensive rats of 6 weeks old. Experimental Methods: Spontaneous hypertensive rats of 6 weeks old were divided into 8 groups with 10 rats per group. 0.8 to 0.9 g per day of common salt was administered starting from week 6. […] The scores of neurological deficit and the time of death were recorded.

[5] = tested on: ischemic brain of decapitated mice; experiment: Ischemic cerebral metabolism of energy induced by decapitation of mice; format: in vivo, KunMing mice; conditions: NBP 50 and 100 mg/kg oral, sodium Phenobarbital 225 mg/kg ip.; decapitated 30 minutes after administration; 15 seconds ischemia; vs control group
Method: Experimental Animals: KunMing mice.
Test drug: injectable L-butylphthalide was formulated into an emulsion with Tween-80.
Experimental Methods: KunMing mice of 10 to 22 g were divided into 8 groups with 10 mice per group. dl-, d-, and l-NBP (50 and 100 mg/kg/d), sodium Phenobarbital (225 mg/kg ip.) and the vehicle were orally administered. Thirty minutes after administration, the mice were decapitated.
The time between the decapitation and homogenation, which was 15 seconds, was regarded as cerebral ischemic time. Centrifugation and isolation were conducted by the method of Folbergrova, and the contents of lactic acid, ATP and PCr were determined by enzymological method.

[6] = tested on: normal rats; format: in vivo, Male wistar rats; conditions: 15 and 30 mg/kg oral; 30 minutes after administration
Method: Experimental Animals: Male wistar rats.
Experimental Equipments: SXP operating microscope, 62TZ-V model high frequency electrotome, solid positioner, Diamond Electro-Tech chemical microsensor 1231, two channel physiological parameter recorder.
Experimental Methods: • (1) dl-, d-, and l-NBP (15 and 30 mg/kg) and the vehicle were orally administered to the normal rats, and the changes of cerebral blood flow at different time after the administration were measured. • (2) ligation of cerebral artery was conducted on rats according to the method of Tamura. Oral administration was performed at 10 min after the operation. The rats were divided into 9 groups, which were normal group, pseudo-operation group, vehicle control group, and groups of dl-, d-, and l-NBP (15 and 30 mg/kg).

[7] = tested on: permanent cerebral ischemic rats; experiment: Behavioral disorder and cerebral infarct area in permanent cerebral ischemic rats (FeCl3 on middle cerebral artery); format: in vivo, Wistar rats
Method: Experimental Animal: The same as Example 1. Experimental Equipments: COOLPIX955 digital camera, 722 grating spectroscope, XHF-1 high-speed disperser, YKH-II liquid high-speed mixer, WZ-50C2 micro infusion pump. Experimental Methods: Wistar rats were anesthetized by intraperitoneally injecting 12% chloral hydrate in 350 mg/kg, and fixed in lateral decubitus position. The skin at the midpoint on the line from exterior auditory canal to canthus was cut. The muscle was separated layer by layer to expose zygomatic arch and the squamous part of temporal bone. The zygomatic arch was scissored and then placed under an operating microscope. A window of 2 mm diameter was drilled by using a dentistry drill at a position of 2 mm under the anterior joint between zygomatic arch and the squamous part of temporal bone, so as to expose the middle cerebral artery. A little piece of filter paper was applied onto the middle artery, and 10 μl of 50% FeCl3 aqueous solution was dripped onto the filter paper. The filter paper was removed after 30 min, and washed with physiological brine. Two to three drops of penicillin (1.6×10^5 U/mL) were added so as to prevent infection of the cut. Then the cut was sutured layer by layer.

[8] = tested on: cerebral ischemia-reperfusion rats; experiment: Behavioral disorder and cerebral infarct area in cerebral ischemia-reperfusion rats (MCAO by nylon suture, 1.5 h); format: in vivo, male Wistar rats
Excerpt: Experimental Animal: The same as Example 1
Experimental Equipments: The same as Example 7
Experimental Methods: The rats were anesthetized, and fixed in lateral decubitus position. Under the operating microscope, a midline neck skin incision was made to expose the left common cartotid artery. The surrounding nerves and fascia from the bifurcation of common carotid artery to the vascular of basis cranii were removed.
The internal carotid artery was then separated and carefully separated free from vagus nerve. Pterygopalatine artery was ligated at the root of the internal carotid artery. A 6# needle for injection containing 3# nylon suture (diameter of 0.285 mm) was punctured into the free end of the external carotid artery, advancing the nylon suture into the blood vascular. The needle was carefully withdrawn, and the nylon suture was guided into the internal carotid artery from the distal end of the external carotid artery up till to Willis ring, so as to effectively block the middle cerebral artery.
Depending on the body weight, the distance from the inserted nylon suture to the bifurcation of common carotid artery was 18 to 20 mm. The free end of the external carotid artery and the nylon suture therein were ligated together, in order to prevent bleeding. The muscle and the skin were then sutured layer by layer, and penicillin was dropped to prevent infection. To effectively block the middle cerebral artery, the tip of the nylon suture was made round by burning with the flame, and coated with 0.1% of poly-L-lysine. The nylon suture was baked in a 60° C. oven for 1 hour.
Due to the ability of poly-L-lysine to binding the cell and the protein to the plastic surface, and thus allow the negative charged nylon suture changing into a positive charged one and attract the anion ionic part of the endothelial cell, the nylon suture was closely bond to the endothelial surface, so as to prevent the leakage of the blood from the surrounding of the suture. Only the internal carotoid artery was separated from the animals of pseudo-operation group.
At 1.5 hours after the initiation of MCAO, the nylon suture within the lumen of the internal carotoid artery was carefully withdrawn, and the internal carotoid artery was allowed to reperfusion. The rats were then placed back into the cage.

[9] = 24 hours after intravenous injection

CCCC[C@H]1OC(=O)c2ccccc21 [d-NBP, dextro-butylphthalide]
neural symptoms (behavioral changes scored) [1]: no significant effect
times of active avoidance [2]: not observed
content of K+ in the brain [3]: no significant effect
content of Na+ in the brain [3]: no significant effect
content of water in the brain [3]: no significant effect
preventive and therapeutic effect on cerebral apoplexy (overall) [4]: not significant
content of ATP in the brain [5]: no such significant effect
content of PCr in the brain [5]: no such significant effect
content of lactic acid in the brain [5]: no such significant effect
cerebral blood flow rate in normal rats [6]: no such effects
cerebral infarct area (effect in words) ([7]; 2.5 mg/kg, tendency of reducing): not significant
reduction of cerebral infarct area ([7]; first of three doses, vs model control group): 27.2%
decrease of neurological deficit scores ([7]; high dose, i.v., 24 hours after administration): 28.1%
ED30 (neurological deficit scores) ([7]; i.v., 24 hours after administration): 12.4 mg/kg
neurological deficit scores (effect in words) ([7]; intravenous injection, vs model control group): improvement
decrease of neurological deficit scores ([7]; low dose, i.v., 24 hours after administration): 17.2%
decrease of neurological deficit scores ([7]; moderate dose, i.v., 24 hours after administration): 21.9%
reduction of cerebral infarct area ([7]; second of three doses, vs model control group): 32.7%
reduction of cerebral infarct area ([7]; third of three doses, vs model control group): 39.9%
ED40 (cerebral infarct area) ([7]; vs model control group): 10.3 mg/kg
neurological deficit scores (effect in words) [8, 9]: improvement
potency on neurological deficit scores compared among l, dl and d-NBP [8, 9]: no significant difference
cerebral infarct area (effect in words) ([8]; intravenous administration, effect increases with dose): significantly reduce

CCC1(c2ccccc2)C(=O)NC(=O)NC1=O [sodium Phenobarbital]
content of ATP in the brain [5]: increased
content of PCr in the brain [5]: increased
content of lactic acid in the brain [5]: significantly decreased
